Reference: ChEMBL document CHEMBL3526037, “Evaluation of the relationship between sex, polymorphisms in CYP2C8 and CYP2C9, and pharmacokinetics of angiotensin receptor blockers” (Drug Metab Dispos, 2013)

Experiments:
Type in all cases: ADME, organism-based
[1] = Cmax in men plasma at 80 mg by LC/MS/MS analysis; set-up: dose 80 mg; settings: male, human
[2] = AUC in human plasma expressing CYP2C9*3 allele carrier polymorphism at 80 mg by LC/MS/MS analysis
[3] = AUC in human plasma expressing CYP2C8*2 allele carrier polymorphism at 80 mg by LC/MS/MS analysis
[4] = AUC in women plasma at 80 mg by LC/MS/MS analysis; settings: female, human
[5] = Tmax in human plasma expressing CYP2C8*2 allele carrier polymorphism at 80 mg by LC/MS/MS analysis
[6] = Cmax in human plasma expressing CYP2C8*1/*1 polymorphism at 80 mg by LC/MS/MS analysis; set-up: dose 80 mg
[7] = AUC in human plasma expressing CYP2C8*1/*1 polymorphism at 80 mg by LC/MS/MS analysis
[8] = AUC in human plasma expressing CYP2C9*1/*1 polymorphism at 80 mg by LC/MS/MS analysis
[9] = Half life in human plasma expressing CYP2C9*1/*1 polymorphism at 80 mg by LC/MS/MS analysis
[10] = Cmax in women plasma at 80 mg by LC/MS/MS analysis; set-up: dose 80 mg; settings: female, human
[11] = AUC in men plasma at 80 mg by LC/MS/MS analysis; settings: male, human
[12] = Tmax in men plasma at 80 mg by LC/MS/MS analysis; settings: male, human
[13] = AUC in human plasma expressing CYP2C8*3 allele carrier polymorphism at 80 mg by LC/MS/MS analysis
[14] = Cmax in human plasma expressing CYP2C9*1/*1 polymorphism at 80 mg by LC/MS/MS analysis; set-up: dose 80 mg
[15] = Half life in human plasma expressing CYP2C8*2 allele carrier polymorphism at 80 mg by LC/MS/MS analysis
[16] = Half life in human plasma expressing CYP2C9*3 allele carrier polymorphism at 80 mg by LC/MS/MS analysis
[17] = Tmax in women plasma at 80 mg by LC/MS/MS analysis; settings: female, human
[18] = Tmax in human plasma expressing CYP2C8*3 allele carrier polymorphism at 80 mg by LC/MS/MS analysis
[19] = Cmax in human plasma expressing CYP2C8*3 allele carrier polymorphism at 80 mg by LC/MS/MS analysis; set-up: dose 80 mg
[20] = Half life in human plasma expressing CYP2C8*1/*1 polymorphism at 80 mg by LC/MS/MS analysis
[21] = Tmax in human plasma expressing CYP2C9*1/*1 polymorphism at 80 mg by LC/MS/MS analysis
[22] = Tmax in human plasma expressing CYP2C8*1/*1 polymorphism at 80 mg by LC/MS/MS analysis
[23] = Cmax in human plasma expressing CYP2C8*2 allele carrier polymorphism at 80 mg by LC/MS/MS analysis; set-up: dose 80 mg
[24] = Half life in men plasma at 80 mg by LC/MS/MS analysis; settings: male, human
[25] = Half life in human plasma expressing CYP2C8*3 allele carrier polymorphism at 80 mg by LC/MS/MS analysis
[26] = Half life in women plasma at 80 mg by LC/MS/MS analysis; settings: female, human
[27] = Tmax in human plasma expressing CYP2C9*3 allele carrier polymorphism at 80 mg by LC/MS/MS analysis
[28] = Cmax in human plasma expressing CYP2C9*3 allele carrier polymorphism at 80 mg by LC/MS/MS analysis; set-up: dose 80 mg
[29] = AUC in human plasma expressing CYP2C8*1/*1 polymorphism at 25 to 320 mg by LC/MS/MS analysis
[30] = Tmax in human plasma expressing CYP2C9*1/*1 polymorphism at 25 to 320 mg by LC/MS/MS analysis
[31] = Tmax in human plasma expressing CYP2C9*2 allele carrier polymorphism at 25 to 320 mg by LC/MS/MS analysis
[32] = AUC in human plasma expressing CYP2C9*2 allele carrier polymorphism at 25 to 320 mg by LC/MS/MS analysis
[33] = Half life in human plasma expressing CYP2C8*1/*1 polymorphism at 25 to 320 mg by LC/MS/MS analysis
[34] = Half life in human plasma expressing CYP2C8*3 allele carrier polymorphism at 25 to 320 mg by LC/MS/MS analysis
[35] = AUC in human plasma expressing CYP2C8*2 allele carrier polymorphism at 25 to 320 mg by LC/MS/MS analysis
[36] = Cmax in human plasma expressing CYP2C8*4 allele carrier polymorphism at 25 to 320 mg by LC/MS/MS analysis
[37] = Half life in men plasma at 25 to 320 mg by LC/MS/MS analysis; settings: male, human
[38] = Cmax in human plasma expressing CYP2C9*1/*1 polymorphism at 25 to 320 mg by LC/MS/MS analysis
[39] = Tmax in men plasma at 25 to 320 mg by LC/MS/MS analysis; settings: male, human
[40] = AUC in human plasma expressing CYP2C9*1/*1 polymorphism at 25 to 320 mg by LC/MS/MS analysis
[41] = Tmax in human plasma expressing CYP2C8*3 allele carrier polymorphism at 25 to 320 mg by LC/MS/MS analysis
[42] = Cmax in human plasma expressing CYP2C9*3 allele carrier polymorphism at 25 to 320 mg by LC/MS/MS analysis
[43] = Tmax in human plasma expressing CYP2C8*2 allele carrier polymorphism at 25 to 320 mg by LC/MS/MS analysis
Homo sapiens [44] = species on record: Homo sapiens; test: Cmax in human plasma expressing CYP2C8*3 allele carrier polymorphism at 25 to 320 mg by LC/MS/MS analysis; settings: in vivo
[45] = Cmax in women plasma at 25 to 320 mg by LC/MS/MS analysis; settings: female, human
[46] = Half life in women plasma at 25 to 320 mg by LC/MS/MS analysis; settings: female, human
Homo sapiens [47] = species on record: Homo sapiens; test: AUC in human plasma expressing CYP2C9*3 allele carrier polymorphism at 25 to 320 mg by LC/MS/MS analysis; settings: in vivo
[48] = AUC in men plasma at 25 to 320 mg by LC/MS/MS analysis; settings: male, human
[49] = Cmax in human plasma expressing CYP2C8*2 allele carrier polymorphism at 25 to 320 mg by LC/MS/MS analysis
[50] = AUC in human plasma expressing CYP2C8*3 allele carrier polymorphism at 25 to 320 mg by LC/MS/MS analysis
[51] = Cmax in human plasma expressing CYP2C9*2 allele carrier polymorphism at 25 to 320 mg by LC/MS/MS analysis
[52] = Tmax in human plasma expressing CYP2C8*1/*1 polymorphism at 25 to 320 mg by LC/MS/MS analysis
[53] = Cmax in human plasma expressing CYP2C8*1/*1 polymorphism at 25 to 320 mg by LC/MS/MS analysis
[54] = Tmax in women plasma at 25 to 320 mg by LC/MS/MS analysis; settings: female, human
[55] = AUC in women plasma at 25 to 320 mg by LC/MS/MS analysis; settings: female, human
[56] = Cmax in men plasma at 25 to 320 mg by LC/MS/MS analysis; settings: male, human
[57] = AUC in human plasma expressing CYP2C8*4 allele carrier polymorphism at 25 to 320 mg by LC/MS/MS analysis
[58] = Tmax in human plasma expressing CYP2C8*4 allele carrier polymorphism at 25 to 320 mg by LC/MS/MS analysis
[59] = Half life in human plasma expressing CYP2C8*4 allele carrier polymorphism at 25 to 320 mg by LC/MS/MS analysis
[60] = Tmax in human plasma expressing CYP2C9*3 allele carrier polymorphism at 25 to 320 mg by LC/MS/MS analysis
[61] = Half life in human plasma expressing CYP2C9*1/*1 polymorphism at 25 to 320 mg by LC/MS/MS analysis
[62] = Half life in human plasma expressing CYP2C9*3 allele carrier polymorphism at 25 to 320 mg by LC/MS/MS analysis

CCCc1nc2c(C)cc(-c3nc4ccccc4n3C)cc2n1Cc1ccc(-c2ccccc2C(=O)O)cc1
Cmax [1]: 282 ng/mL
AUC [2]: 3400 ng·h/mL
AUC [3]: 3680 ng·h/mL
AUC [4]: 3680 ng·h/mL
Tmax [5]: 1.3 h
Cmax [6]: 437 ng/mL
AUC [7]: 3010 ng·h/mL
AUC [8]: 3130 ng·h/mL
half-life [9]: 29.7 h
Cmax [10]: 590 ng/mL
AUC [11]: 2470 ng·h/mL
Tmax [12]: 1.3 h
AUC [13]: 3230 ng·h/mL
Cmax [14]: 446 ng/mL
half-life [15]: 29.1 h
half-life [16]: 30.1 h
Tmax [17]: 1.4 h
Tmax [18]: 1 h
Cmax [19]: 494 ng/mL
half-life [20]: 28.7 h
Tmax [21]: 1.4 h
Tmax [22]: 1.4 h
Cmax [23]: 498 ng/mL
half-life [24]: 25.1 h
half-life [25]: 33.9 h
half-life [26]: 33.1 h
Tmax [27]: 1.1 h
Cmax [28]: 510 ng/mL

CCCCC(=O)N(Cc1ccc(-c2ccccc2-c2nnn[nH]2)cc1)[C@H](C(=O)O)C(C)C
AUC [29]: 36500 ng·h/mL
Tmax [30]: 3.3 h
Tmax [31]: 3 h
AUC [32]: 38800 ng·h/mL
half-life [33]: 9.3 h
half-life [34]: 9.4 h
AUC [35]: 55100 ng·h/mL
Cmax [36]: 4860 ng/mL
half-life [37]: 9.1 h
Cmax [38]: 4880 ng/mL
Tmax [39]: 3.2 h
AUC [40]: 40600 ng·h/mL
Tmax [41]: 3 h
Cmax [42]: 4010 ng/mL
Tmax [43]: 3.1 h
Cmax (Homo sapiens [44]): 4711 ng/mL
Cmax [45]: 4910 ng/mL
half-life [46]: 9.4 h
AUC (Homo sapiens [47]): 31449 ng·h/mL
AUC [48]: 38800 ng·h/mL
Cmax [49]: 6140 ng/mL
AUC [50]: 37400 ng·h/mL
Cmax [51]: 4840 ng/mL
Tmax [52]: 3.3 h
Cmax [53]: 4550 ng/mL
Tmax [54]: 3.2 h
AUC [55]: 38600 ng·h/mL
Cmax [56]: 4590 ng/mL
AUC [57]: 39600 ng·h/mL
Tmax [58]: 2.8 h
half-life [59]: 7.6 h
Tmax [60]: 3 h
half-life [61]: 9.1 h
half-life [62]: 9.9 h
